Source: paper PMC5400565, “Real-time near-infrared fluorescence imaging using cRGD-ZW800-1 for intraoperative visualization of multiple cancer types” (Oncotarget, 2017)

Tests used:
MAO-A = target: T1, MAO-A (Rattus norvegicus, UniProt P21396); assay: Off-target screening (Eurofins Cerep), MAO-A; type: binding
T1 construct: Eurofins Cerep SA (contract screen)

KV channel = assay: Off-target screening (Eurofins Cerep), KV channel; type: binding
Source text: Off-target interactions are binding of tracers to other components on the cell surface than the actual target site. These non-specific interactions are often of low affinity and easily missed, but can have significant effects. We outsourced the screening for in vitro for off-target interactions of cRGD-ZW800-1 to Eurofins Cerep SA, Le bois l’Evêque, France. They assessed the percentage of inhibition of a reference compound in 44 selected targets, including G protein-coupled receptors (GPCRs), transporters, ion channels, nuclear receptors, kinases and other non-kinase enzymes. These targets were recommended by four major pharmaceutical companies. The complete list is included in Supplementary Table 1 of the Supplementary Data. Each assay was performed twice using 10 μM cRGD-ZW800-1 and a reference compound. Inhibition higher than 50% was considered to represent a significant effect of cRGD-ZW800-1. Results showing between 20% and 50% were considered weak to moderate effects, while lower than 20% was not considered significant and mostly attributable to variability of the signal around the control level.

Adrenergic α2A = target: T2, Adrenergic α2A (Homo sapiens, UniProt P08913); assay: Off-target screening (Eurofins Cerep), α2A; type: binding
T2 construct: Eurofins Cerep SA (contract screening)

Glutamate channels NMDA = Glutamate channels NMDA (Rattus norvegicus, UniProt Q00959); assay: Off-target screening (Eurofins Cerep), NMDA; type: binding
BxPC-3 pancreatic tumors = assay: NIR fluorescence imaging, BxPC-3 pancreatic tumors; type: in vivo, mice; conditions: all three dose groups (1.0, 10, 30 nmol), FLARE and Pearl, skin as background
Protocol: To induce subcutaneous tumors, colorectal cancer cells (HT-29) were injected at 4 sites on the back (500,000 cells per spot). Subsequently, these colorectal tumor cells were transplanted on the colon of other mice, as described by Tseng et al.. Approximately 500,000 pancreatic tumor cells (BxPC-3) were injected into the pancreas, as previously described by Kim et al.. Approximately 40,000 oral tumor cells (OSC-19) were injected in the tongue, as previously described by van Driel et al.. Approximately 500,000 breast tumor cells (MCF-7) were injected in both sides of the mammary fat pad to induce breast cancer tumors.
All animals were imaged using a Pearl® imager (LI-COR, Lincoln, NE) and an original FLARE® prototype. Animals with HT-29 tumors were imaged at 4 and 24 h post injection; animals with BxPC-3 and OSC-19 tumors at 4 h only. Animals with MCF-7 tumors were imaged at 0.5, 1, 2, 4, 6, 8, 24 and 48 h post injection. […] TBRs were calculated by dividing the tumor signal by the background signal. […]
Mice were administered with 0.25 (HT-29 model only), 1.0, 10, or 30 nmol cRGD-ZW800-1 to evaluate tumor signals, biodistribution, and to calculate TBRs (n = 3 per dose group). At 4 h (BxPC-3 model) and 24 h (HT-29 model) after injection, mice were fully dissected and fluorescence intensity of their organs was measured.

[1] = 10 μM, mean of 2, read-out: % of Control Specific Binding Mean

Sequence of Glutamate channels NMDA (Q00959 23-1464, other chains not shown): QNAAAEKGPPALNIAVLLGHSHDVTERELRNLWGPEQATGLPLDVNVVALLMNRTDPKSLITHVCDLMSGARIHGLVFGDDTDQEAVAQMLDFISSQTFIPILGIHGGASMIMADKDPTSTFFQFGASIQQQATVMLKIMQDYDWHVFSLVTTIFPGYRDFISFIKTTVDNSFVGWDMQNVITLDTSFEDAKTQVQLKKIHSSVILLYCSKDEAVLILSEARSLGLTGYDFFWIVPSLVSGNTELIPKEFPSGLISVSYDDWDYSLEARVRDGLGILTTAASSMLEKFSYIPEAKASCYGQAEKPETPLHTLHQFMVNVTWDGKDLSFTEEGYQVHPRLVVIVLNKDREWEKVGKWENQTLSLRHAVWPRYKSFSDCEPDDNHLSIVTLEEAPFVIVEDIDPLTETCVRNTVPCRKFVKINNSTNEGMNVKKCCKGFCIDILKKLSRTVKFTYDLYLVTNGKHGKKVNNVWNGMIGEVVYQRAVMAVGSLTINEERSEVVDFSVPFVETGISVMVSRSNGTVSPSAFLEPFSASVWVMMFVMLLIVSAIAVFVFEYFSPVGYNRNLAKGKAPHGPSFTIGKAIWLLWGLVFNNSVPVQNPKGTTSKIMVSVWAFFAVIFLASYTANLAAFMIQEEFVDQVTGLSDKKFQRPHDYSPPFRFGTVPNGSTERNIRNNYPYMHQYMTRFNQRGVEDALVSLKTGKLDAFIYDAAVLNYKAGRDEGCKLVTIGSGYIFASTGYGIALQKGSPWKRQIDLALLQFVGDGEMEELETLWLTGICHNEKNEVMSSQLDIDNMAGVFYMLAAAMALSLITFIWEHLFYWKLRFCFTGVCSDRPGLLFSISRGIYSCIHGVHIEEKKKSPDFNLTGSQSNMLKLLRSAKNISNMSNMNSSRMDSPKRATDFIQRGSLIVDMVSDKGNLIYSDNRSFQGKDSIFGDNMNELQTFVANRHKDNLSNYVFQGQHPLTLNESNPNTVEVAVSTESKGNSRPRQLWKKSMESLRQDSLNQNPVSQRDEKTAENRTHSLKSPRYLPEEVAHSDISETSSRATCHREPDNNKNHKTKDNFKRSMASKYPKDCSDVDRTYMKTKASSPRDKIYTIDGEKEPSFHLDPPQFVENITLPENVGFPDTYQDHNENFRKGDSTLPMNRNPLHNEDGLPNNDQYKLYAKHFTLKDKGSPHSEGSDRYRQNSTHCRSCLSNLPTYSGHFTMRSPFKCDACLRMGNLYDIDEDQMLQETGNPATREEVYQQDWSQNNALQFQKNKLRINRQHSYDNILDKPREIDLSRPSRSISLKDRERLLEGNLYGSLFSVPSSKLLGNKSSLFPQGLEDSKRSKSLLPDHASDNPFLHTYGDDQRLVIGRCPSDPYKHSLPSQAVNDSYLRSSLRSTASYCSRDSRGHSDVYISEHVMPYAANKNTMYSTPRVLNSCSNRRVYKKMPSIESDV
T1 sequence (P21396 whole entry): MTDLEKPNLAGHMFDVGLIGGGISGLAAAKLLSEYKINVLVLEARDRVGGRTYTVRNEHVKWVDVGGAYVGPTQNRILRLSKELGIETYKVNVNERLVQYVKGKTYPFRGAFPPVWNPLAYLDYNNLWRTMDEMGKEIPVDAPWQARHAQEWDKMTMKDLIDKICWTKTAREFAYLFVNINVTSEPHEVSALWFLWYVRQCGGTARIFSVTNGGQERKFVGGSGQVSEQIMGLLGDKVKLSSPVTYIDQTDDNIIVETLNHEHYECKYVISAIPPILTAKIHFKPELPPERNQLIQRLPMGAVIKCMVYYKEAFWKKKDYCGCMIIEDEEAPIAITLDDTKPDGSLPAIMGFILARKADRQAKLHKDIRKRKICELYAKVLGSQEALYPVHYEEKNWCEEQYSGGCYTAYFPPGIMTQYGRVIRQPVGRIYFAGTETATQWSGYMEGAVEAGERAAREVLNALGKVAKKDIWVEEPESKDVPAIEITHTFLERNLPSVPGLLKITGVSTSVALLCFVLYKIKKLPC
T2 sequence (P08913 whole entry): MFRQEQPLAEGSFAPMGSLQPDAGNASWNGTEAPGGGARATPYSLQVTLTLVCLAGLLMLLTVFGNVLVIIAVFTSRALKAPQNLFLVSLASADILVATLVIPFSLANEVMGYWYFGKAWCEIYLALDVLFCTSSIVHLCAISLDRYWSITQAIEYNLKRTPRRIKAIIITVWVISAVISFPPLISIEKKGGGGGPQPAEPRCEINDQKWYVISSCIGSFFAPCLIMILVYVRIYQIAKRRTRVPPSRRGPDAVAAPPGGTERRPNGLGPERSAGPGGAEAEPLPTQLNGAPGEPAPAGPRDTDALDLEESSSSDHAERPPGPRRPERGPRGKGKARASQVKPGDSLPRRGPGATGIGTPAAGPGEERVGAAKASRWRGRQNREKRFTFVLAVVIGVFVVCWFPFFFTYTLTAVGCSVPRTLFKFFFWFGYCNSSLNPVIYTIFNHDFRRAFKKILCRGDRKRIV

With `CC1(C)C(/C=C/C2=C(Oc3ccc(CCC(=O)NCCCC[C@@H]4NC(=O)[C@@H](Cc5ccc(O)cc5)NC(=O)[C@H](CC(=O)O)NC(=O)CNC(=O)[C@H](CCCNC(=N)N)NC4=O)cc3)C(=C/C=C3/N(CCC[N+](C)(C)C)c4ccc(S(=O)(=O)O)cc4C3(C)C)/CCC2)=[N+](CCC[N+](C)(C)C)c2ccc(S(=O)(=O)O)cc21` [cRGD-ZW800-1] the inhibition at 10 µM (MAO-A; 10 μM cRGD-ZW800-1, format An, performed twice, read-out: % Inhibition of Control Specific Binding) was 15%, the remaining activity at 10 µM (MAO-A; [1]) was 85% and the “% Inhibition of Control Specific Binding” value (KV channel; 10 μM cRGD-ZW800-1, format An, performed twice) was 2%. The “% of Control Specific Binding Mean” value (KV channel; 10 μM, mean of 2) was 98.0%, the inhibition at 10 µM (Adrenergic α2A; 10 μM cRGD-ZW800-1, format H, An, performed twice, read-out: % Inhibition of Control Specific Binding) was -4% and the remaining activity at 10 µM (Adrenergic α2A; [1]) was 104%. The inhibition at 10 µM (Glutamate channels NMDA; read-out: % Inhibition of Control Specific Binding) was 10%, the remaining activity at 10 µM (Glutamate channels NMDA; read-out: % of Control Specific Binding Mean) was 90.4% and the “TBRs at 4 h post injection” value (BxPC-3 pancreatic tumors) was over 2.
